In the test the target is T1, mTor (Homo sapiens, UniProt P42345).
T1 construct: purchased Millipore/Merck KGA of Europe (panel screening service)
In words: mTor kinase inhibition, % activity at 0.03 μM (kinases panel screening). It is filed as biochemical. The settings on record: 0.03 μM compound. An excerpt:
In vitro kinase inhibition activities included Pi3k and mTor activities can be tested with Millipore/Merck KGA of Europe in their kinases panel screening. Animal antitumor activity testing can be conducted by various cancer xenograft models for a compound of formula I. […]

This is an account of results in patent US10730878B2, “Fused quinoline compounds as PI3K/mTOR inhibitors” (ADVENCHEN PHARMACEUTICALS, LLC, priority 2015, dated 2020).

Regarding `COc1ccc(-c2ccc3ncc4c(c3c2)n(-c2ccc(C(C)(C)C)cc2)c2nncn42)cn1` [2-methoxy-5-pyridine; H; CH3, CH3; CH3, 16-(4-tert-butylphenyl)-4-(6-methoxypyridin-3-yl)-8,11,13,14,16-pentaazatetracyclo-[8.6.0.0^2,^7.0^11,^1^5]hexadec-1(10),2,4,6,8,12,14-heptaene], the “mTor % activity @0.03 μM” value is on record as 15%. Consider “N-{5-[16-(4-tert-butylphenyl)-12-ethyl-8,11,13,14,16-pentaazatetracyclo[8.6.0.0^2,^7.0^11,^1^5]-hexadeca-(10),2,4,6,8,12,14-heptaen-4-yl]pyridin-2-yl}-2-(morpholin-4-yl)acetamide”, for which the “mTor % activity @0.03 μM” value was determined as 92%. Under `Cc1nnc2n(-c3ccc(C(C)(C)C#N)cc3)c3c4cc(-c5ccc(N)nc5)ccc4ncc3n12` [5-pyridin-2-amine; CH3; CH3, CH3; CN] stands 64%. With “N-(5-{16-[4-(1-cyano-1-methylethyl)phenyl]-8,11,13,14,16-pentaazatetracyclo[8.6.0.0^2,^7.0^11,^1^5]-hexadeca-1(10), 2,4,6,8,12,14-heptaen-4-yl)}pyridin-2-yl)-2-(4-hydroxypiperidin-1-yl)acetamide” the figure was 17%; with “N-{5-[16-(4-tert-butylphenyl)-12-ethyl-8,11,13,14,16-pentaazatetracyclo[8.6.0.0^2,^7.0^11,^1^5]-hexadeca-1(10), 2,4,6,8,12,14-heptaen-4-yl]pyridin-2-yl}-2-(pyrrolidin-1-yl)acetamide”, 91%.

As for `C#CC(C)(C)c1ccc(-n2c3c4cc(-c5ccc(OC)nc5)ccc4ncc3n3c(C)nnc23)cc1` [2-methoxy-5-pyridine; CH3; CH3, CH3; CN, 4-(6-methoxypyridin-3-yl)-12-methyl-16-[4-(2-methylbut-3-yn-2-yl)phenyl]8,11,13,14,16-pentaazatetracyclo[8.6.0.0^2,^7.0^11,^1^5]hexadeca-1(10),2,4,6,8,12,14-heptaene], the “mTor % activity @0.03 μM” value was found to be 98%.

Take `Cc1nnc2n(-c3ccc(C(C)(C)C)cc3)c3c4cc(-c5cccnc5)ccc4ncc3n12` [3-pyridine; CH3; CH3, CH3; CH3, 16-(4-tert-butylphenyl)-12-methyl-4-(pyridin-3-yl)-8,11,13,14,16-pentaazatetracyclo-[8.6.0.0^2,^7.0^11,^1^5]hexadec-1(10),2,4,6,8,12,14-heptaene]: the “mTor % activity @0.03 μM” value was determined as 88%.

`CC(C)(C)c1ccc(-n2c3c4cc(-c5cncnc5)ccc4ncc3n3cnnc23)cc1` [5-pyrimidine; H; CH3, CH3; CH3, 16-(4-tert-butylphenyl)-4-(pyrimidin-5-yl)-8,11,13,14,16-pentaazatetracyclo[8.6.0.0^2,^7.0^11,^1^5]-hexadeca-1(10), 2,4,6,8,12,14-heptaene]: the “mTor % activity @0.03 μM” value was found to be 39%. With “N-(5-{16-[4-(1-cyano-1-methylethyl)phenyl]-8,11,13,14,16-pentaazatetracyclo[8.6.0.0^2,^7.0^11,^1^5]-hexadeca-1(10), 2,4,6,8,12,14-heptaen-4-yl)}pyridin-2-yl)-2-(4-methylpiperazin-1-yl)acetamide” the figure was 8%; with `Cc1nnc2n(-c3ccc(C(C)(C)C)cc3)c3c4cc(-c5ccc(N)nc5)ccc4ncc3n12` [5-pyridin-2-amine; CH3; CH3, CH3; CH3, 5-[16-(4-tert-butylphenyl)-12-methyl-8,11,13,14,16-pentaazatetracyclo[8.6.0.0^2,^7.0^11,^1^5]-hexadeca-1(10), 2,4,6,8,12,14-heptaen-4-yl]pyridin-2-amine], 34%; with `CC(=O)Nc1ccc(-c2ccc3ncc4c(c3c2)n(-c2ccc(C(C)(C)C#N)cc2)c2nnc(C)n42)cn1` [N-(5-{16-[4-(1-cyano-1-methylethyl)phenyl]-12-methyl-8,11,13,14,16-pentaazatetracyclo-[8.6.0.0^2,^7.0^11,^1^5]hexadeca-1(10),2,4,6,8,12,14-heptaen-4-yl}pyridin-2-yl)acetamide], 74%. In the case of `C#CC(C)(C)c1ccc(-n2c3c4cc(-c5ccc(OC)nc5)ccc4ncc3n3c(CC)nnc23)cc1` [12-ethyl-4-(6-methoxypyridin-3-yl)-16-[4-(2-methylbut-3-yn-2-yl)phenyl]-8,11,13,14,16-pentaazatetracyclo[8.6.0.0^2,^7.0^11,^1^5]hexadeca-1(10),2,4,6,8,12,14-heptaene], the “mTor % activity @0.03 μM” value was determined as 69%.

For `Cc1nnc2n(-c3ccc(C(C)(C)C)cc3)c3c4cc(-c5cncnc5)ccc4ncc3n12` [5-pyrimidine; CH3; CH3, CH3; CH3, 16-(4-tert-butylphenyl)-12-methyl-4-(pyrimidin-5-yl)-8,11,13,14,16-pentaazatetracyclo-[8.6.0.0^2,^7.0^11,^1^5]hexadeca-1(10), 2,4,6,8,12,14-heptaene], the “mTor % activity @0.03 μM” value is reported as 104%. `CC(C)(C)c1ccc(-n2c3c4cc(-c5cnc6ccccc6c5)ccc4ncc3n3cnnc23)cc1` [3-quinoline; H; CH3, CH3; CH3, 16-(4-tert-butylphenyl)-4-(quinolin-3-yl)-8,11,13,14,16-pentaazatetracyclo[8.6.0.0^2,^7.0^11,^1^5]-hexadeca-1(10), 2,4,6,8,12,14-heptaene]: the “mTor % activity @0.03 μM” value came to 22%.

In the case of `Cc1nnc2n(-c3ccc(C(C)(C)C#N)cc3)c3c4cc(-c5cncnc5)ccc4ncc3n12` [5-pyrimidine; CH3; CH3, CH3; CN, 2-methyl-2-{4-[12-methyl-4-(pyrimidin-5-yl)-8,11,13,14,16-pentaazatetracyclo-[8.6.0.0^2,^7.0^11,^1^5]hexadeca-1(10),2,4,6,8,12,14-heptaen-16-yl]phenyl}propanenitrile], the “mTor % activity @0.03 μM” value worked out at 90%. Under “2-amino-N-(5-{16-[4-(1-cyano-1-methylethyl)phenyl]-8,11,13,14,16-pentaazatetra-cyclo[8.6.0.0^2,^7.0^11,^1^5]hexadeca-1(10), 2,4,6,8,12,14-heptaen-4-yl)}pyridin-2-yl)acetamide” stands 8%. In the case of `C#CC(C)(C)c1ccc(-n2c3c4cc(-c5ccc(N)nc5)ccc4ncc3n3c(CC)nnc23)cc1` [5-pyridin-2-amine; CH2CH3; CH3, CH3; CN, 5-{12-ethyl-16-[4-(2-methylbut-3-yn-2-yl)phenyl]-8,11,13,14,16-pentaazatetracyclo-[8.6.0.0^2,^7.0^11,^1^5]hexadeca-1(10),2,4,6,8,12,14-heptaen-4-yl}pyridin-2-amine], the “mTor % activity @0.03 μM” value is 21%. With `CC(C)(C#N)c1ccc(-n2c3c4cc(-c5ccnc6[nH]ccc56)ccc4ncc3n3cnnc23)cc1` [2-methyl-2-[4-(4-{1H-pyrrolo[2,3-b]pyridin-4-yl}-8,11,13,14,16-pentaazatetracyclo-[8.6.0.0^2,^7.0^11,^1^5]hexadeca-1(10),2,4,6,8,12,14-heptaen-16-yl)phenyl]propanenitrile] the figure was 70%. Consider “N-{5-[16-(4-tert-butylphenyl)-12-ethyl-8,11,13,14,16-pentaazatetracyclo[8.6.0.0^2,^7.0^11,^1^5]-hexadeca-1(10), 2,4,6,8,12,14-heptaen-4-yl]pyridin-2-yl}-2-(methylamino)acetamide”, for which the “mTor % activity @0.03 μM” value is listed as 40%.
